From US9969714B2, “Carboxylic acid compounds useful for inhibiting microsomal prostaglandin E2 synthase-1” (Eli Lilly and Company, priority 2014, dated 2018)

Experiments:
[1] = tested on: Human epithelial lung carcinoma cell line A549; assay: Cell based assay for measuring eicosanoid selectivity (rhIL-1β-induced PGE2, EIA); conditions: A549 cells, rhIL-1β 0.1 ng/mL, approximately 18 hours, read-out: IC50, inhibition of PGE2 formation
Procedure: Human epithelial lung carcinoma cell line A549 is obtained from ATCC (CCL-185) and maintained in cell growth medium (Kaighn's F12 cell culture medium+10% fetal bovine serum (FBS)), under standard 5% CO2 humidified atmosphere at 37° C. The cells are passaged at 1:3 twice per week.
For the assays, cells are harvested from flasks by washing once with phosphate buffered saline (PBS), then once with Trypsin-EDTA. After 3-5 minutes at 37° C., the cells are suspended in cell growth medium and centrifuged at 2,000 rpm, 25° C., for 5 minutes. The supernatant is aspirated and the cell pellet is re-suspended in cell growth medium. The cell number is determined by counting an aliquot of cells which has been diluted in PBS and Trypan blue on a hemocytometer. Cells are plated at 40,000/well in 96 well Falcon plates 24 hours prior to treatment. Compounds are diluted in DMSO to 100× of the final concentration in Screen Mates tubes. The medium is removed from the cells and fresh medium (90 μL/well) is added to the cells. The compounds are added at 1 μL/well, n=2, to give seven concentrations each. Cells are pretreated with compounds for 30 minutes at 37° C., 5% CO2. […] After approximately 90-120 minutes at room temperature on an orbital shaker at 100 rpm, the plates are read at A412 on a plate reader. […]

human whole blood = assay: Human whole blood assay (LPS-induced PGE2, LC/MS/MS); type: cell-based; conditions: LPS 100 μg/mL, 20-24 hours, n=6, read-out: IC50, inhibition of PGE2 formation
Procedure: Blood is collected from normal volunteer donors into sodium heparin VACUTAINER tubes. Donors are selected, in part, on their confirmation that they have not taken NSAIDs, aspirin, Celebrex®, or glucocorticoids within two weeks of the donation. All tubes/donor are pooled into 250 mL Corning conical centrifuge tubes and 436.5 μL/well is distributed into deep well polypropylene plates. Compounds are diluted in DMSO to 100× final and 4.5 μL/well in duplicate or triplicate is added to give 7 point curves. […] One hundred microliters is quantitatively transferred to Costar cluster tubes blocks and 400 μL/well of the methanol stop reagent and internal standards, d4-PGE2, d4-PGF2α, and […] are added. […]
Solid phase extraction is performed using Waters HLB 30 mg/bed 96 well plates on a vacuum manifold: Step 1, the matrix is washed with methanol (1 mL), followed by 0.1% formic acid in water (1 mL); Step 2, 400 μL sample is applied along with 0.1% formic acid in water (900 μL) and allowed to bind for 5 minutes; Step 3, the matrix is washed with 0.1% formic acid in water (600 μL), followed by 80/20 water/methanol (600 μL); Step 4, the products are eluted with 2-500 μL volumes of EtOAc; Step 5 the samples are dried under nitrogen and reconstituted in 75/25 water/acetonitrile with 0.1% formic acid (50 μL). The products are analyzed by LC/MS/MS.

IC50 [1]: 5.3 nM
IC50 (human whole blood): 5.9 ± 3.4 nM
Structure (SMILES): Cc1cccc2ccc(N3CCC(C(=O)N[C@H]4CCC[C@H]4CCc4ccccc4C(=O)O)CC3)nc12 [Example 1, 2-(2-((1S,2S)-2-(1-(8-Methylquinolin-2-yl)piperidine-4-carboxamido)cyclopentyl)ethyl)benzoic acid]
